This is an account of results in patent publication US20020019421A1, “Compositions and therapy for substance addiction” (priority 2000, published 2002).

Assay [1] deals with intestinal monoamine oxidase. Kind of assay: Intestinal monoamine oxidase activity maintained in mice. Type of assay: in vivo. Particulars: 0.6 mg/kg. The protocol:
(§1) The inhibitor of monoamine oxidase inhibitor is administered in an effective amount, which is that amount necessary to alleviate, reduce, attenuate, or eliminate the symptoms associated with the addictive disorder, disorder or condition to be treated or to slow disease progression. The monoamine oxidase inhibitor can also be administered prophylactically, in order to prevent symptoms associated with the addicitve disorder or disease, or to delay onset of symptoms associated withdrawal or abstinence. If more than one inhibitor of monoamine oxidase inhibitor is used, the effective amount is that amount of the combination of inhibitor of monoamine oxidase inhibitors that is necessary to alleviate, reduce, eliminate, prevent, or delay onset of the symptoms associated with withdrawal or abstinence. The effective amount will be determined on an individual basis, and will be based in part, on consideration of the particular monoamine oxidase inhibitor, the individual's size and gender, the severity of the symptoms to be treated, the result sought, and the disease, disorder or condition to be treated or prevented. […] The effective amount can be determined by one of ordinary skill in the art, employing such factors and using no more than routine experimentation.

For assay [2], the system named is striatal monoamine oxidase. As to the kind of experiment: Inhibition of striatal monoamine oxidase in mice. Type of assay: in vivo. As for the experimental part:
as §1

Assay [3] deals with smoking cessation. Particulars: cited from earlier work.
In assay [4] the test system is subjects addicted to chronic cigarette smoking. As to the kind of experiment: Experiment One: prospective open trial, self-reported cigarette consumption after quit day.
Method: An experimental clinical trial was performed to assess the effect of selegiline alone and in combination with co-administration of nicotine.
In this prospective open trial subjects addicted to chronic cigarette smoking were administered either oral selegiline tablets (Jumex, Janssen, Belgium) 5 mg. b.i.d. or administered, for subjects 8 and 9, combined co-administration of both oral selegiline and nicotine replacement therapy via transdermal patch. Subjects were then monitored for their level of tobacco product consumption during the course of the next 8 weeks. The study protocol relied on the subjective report of the patient for measurement of the therapy outcome, i.e. reporting of level of cigarette consumption was elicited from the participating subjects at weekly intervals intervals throughout the course of the study, unless the patient was using nictotine replacement therapy. Initial, trial entry levels of craving were determined by administration of the Fagerström Tolerance Score exam, while initial level of mood was monitored by administering the Beck Depression Inventory.
Following one week on the medication, the subjects were instructed to quit smoking on “quit day”, as predetermined at the initiation of the study.

Values joined by “and” are separate entries in the source; they are usually repeats but may differ in a detail not shown here. Equal entries are not always repeated.

As for `C#CCN(C)CCCOc1ccc(Cl)cc1Cl` [clorgyline], the “intestinal monoamine oxidase activity maintained” value in assay [1] is recorded as 50%. Moreover, the “preferred effective amount to inhibit 90% of striatal monoamine oxidase while maintaining 50% of intestinal activity” value in assay [2] was found to be 0.6 mg/kg. Besides, the “inhibition of striatal monoamine oxidase” value in assay [2] (0.6 mg/kg) turned out to be 90%.

`CN1CCC[C@H]1c1cccnc1` [nicotine]: the “success rate, nicotine patch alone” value in assay [3] (N. Eng J Med 1999, 340:685-91) is recorded as 9.8%. Moreover, in assay [3] (current best accepted / known efficacy), the “success rate for smoking cessation, nicotine transdermal patch as sole therapy” value was “about 20%”. Besides, the “cigarettes consumed per week” value is reported as 0 Cig/wk in assay [4] (week 1 from quit day, oral selegiline 5 mg b.i.d. and/or nicotine transdermal patch); 0 Cig/wk in assay [4] (week 2 from quit day); 0 Cig/wk in assay [4] (week 3 from quit day); 0 Cig/wk in assay [4] (week 4 from quit day); 0 Cig/wk in assay [4] (week 5 from quit day); 21 Cig/wk in assay [4] (week 6 from quit day). Also, the entries for the “cigarettes consumed per week” value in assay [4] (week 7 from quit day) and in assay [4] (week 8 from quit day) were 35 Cig/wk and 60 Cig/wk, respectively.

`C#CCN(C)[C@H](C)Cc1ccccc1` [selegiline, (R)-(−)-N,2-dimethyl-N-2-propynylphenethylamine]: the “efficacy: subjects treated successfully (abstaining or significantly reducing cigarette smoking)” value in assay [4] (during treatment, Table 2) is given as “about 30%”. In addition, in assay [4] (open trial, 8 weeks), the “outcome in words: effect on cigarette smoking” value was “effective treatment for substance addiction”. Besides, the “cigarettes consumed per week” value in assay [4] (week 1 from quit day, oral selegiline 5 mg b.i.d. and/or nicotine transdermal patch, listed as S) was 0 Cig/wk (3×) and 21 Cig/wk and 140 Cig/wk and 210 Cig/wk and 35 Cig/wk; in assay [4] (week 2 from quit day, listed as S), 0 Cig/wk (3×) and 21 Cig/wk and 70 Cig/wk; in assay [4] (week 3 from quit day, listed as S), 0 Cig/wk (2×) and 25 Cig/wk and 3 Cig/wk; in assay [4] (week 4 from quit day, listed as S), 0 Cig/wk (3×) and 25 Cig/wk; in assay [4] (week 5 from quit day, listed as S) it was 0 Cig/wk (2×) and 25 Cig/wk; in assay [4] (week 6 from quit day), 0 Cig/wk. The “cigarettes consumed per week” value is 0 Cig/wk (2×) and 21 Cig/wk in assay [4] (week 7 from quit day, listed as S); 0 Cig/wk and 21 Cig/wk in assay [4] (week 8 from quit day, listed as S); 21 Cig/wk in assay [4] (week 9 from quit day).
